Key:
[1] = system: steroid-free glucocorticoid receptors; assay: Reversal by thiols of arsenite inhibition of [3H]Dex binding to steroid-free receptors; settings: receptors preincubated with 40 uM arsenite 30 min, then thiol 30 min
Protocol: Referring to FIG. 4, steroid-free receptors in pH 8.8 TAPS buffer containing 21 mM Na2 MoO4 were preincubated with 40 uM arsenite for 30 min and then adjusted to various concentrations of DTT or β-MERC by addition of 100× solutions of each thiol in pH 8.8 TAPS buffer. After a further 30 min preincubation, the binding activity of these receptors was assayed by incubating with [^3 H]Dex±excess [^1 H]Dex for 2.5 hr. The amount of specific binding (determined as described above for FIG. 1A) of [^3 H]Dex after DTT(o) and β-MERC preincubation was expressed as a percent of the untreated control.
(§1) The growth of HTC cells at 37° C. in spinner and monolayer cultures of Swim's S77 medium (GIBCO; Grand Island, N.Y.) supplemented with 5% fetal and 5% newborn bovine serum (both obtained from Biofluids; Rockville, Md.) and 0.03% glutamine are described in Thompson, 1979. HTC cell cytosol containing the steroid-free receptors was prepared, stored in liquid N2, and labelled as set forth in Reichman et al., Biochem., 23, 5376-5384, 1984; Simons et al., Biochem., 23, 6876-6882, 1984. […] The specifically bound [^3 H]Dex was determined by first adding a 10% dextran-coated charcoal solution (added volume=20% of reaction solution volume) to remove free steroid and then subtracting the nonspecific binding seen in the presence of excess [^1 H]Dex.

[2] = molecular target: T1, glucocorticoid receptors (HTC cell receptors) (Rattus norvegicus, UniProt P06536); assay: [3H]Dex binding to HTC cell cytosol receptors after preincubation with MMTS or arsenite; settings: for inactivation of steroid-binding activity of glucocorticoid receptors: low concentrations of MMTS, very low concentrations of arsenite
T1 sequence (P06536 1-795): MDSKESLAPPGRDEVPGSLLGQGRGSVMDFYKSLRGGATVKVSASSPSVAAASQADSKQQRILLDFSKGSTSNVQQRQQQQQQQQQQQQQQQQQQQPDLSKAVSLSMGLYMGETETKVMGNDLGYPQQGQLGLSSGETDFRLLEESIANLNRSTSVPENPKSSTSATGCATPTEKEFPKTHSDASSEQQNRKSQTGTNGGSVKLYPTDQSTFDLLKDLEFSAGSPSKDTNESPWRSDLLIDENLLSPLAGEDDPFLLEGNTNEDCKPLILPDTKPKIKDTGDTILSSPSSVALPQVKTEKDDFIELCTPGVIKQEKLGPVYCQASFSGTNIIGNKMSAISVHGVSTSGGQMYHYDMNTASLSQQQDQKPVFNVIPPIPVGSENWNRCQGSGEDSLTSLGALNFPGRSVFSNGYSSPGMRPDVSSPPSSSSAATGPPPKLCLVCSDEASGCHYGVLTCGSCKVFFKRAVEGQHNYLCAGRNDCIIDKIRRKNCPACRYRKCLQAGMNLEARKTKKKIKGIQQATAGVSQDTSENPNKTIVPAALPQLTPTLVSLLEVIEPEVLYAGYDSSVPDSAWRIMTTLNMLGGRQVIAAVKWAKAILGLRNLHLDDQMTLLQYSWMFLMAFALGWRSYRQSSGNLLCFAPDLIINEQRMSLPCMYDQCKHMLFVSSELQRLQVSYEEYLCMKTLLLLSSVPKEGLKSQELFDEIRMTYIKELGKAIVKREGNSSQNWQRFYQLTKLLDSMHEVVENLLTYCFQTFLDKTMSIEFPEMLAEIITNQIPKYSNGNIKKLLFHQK
Protocol: Referring to FIG. 1A, duplicate samples of HTC cell (Thompson, E.B., Methods Enzymol., 58, 544-551 [1979]) cytosol solution were pretreated with various concentrations of MMTS in absolute EtOH (final concentration of ETOH=1%) for 0 hr (.smallcircle.), 0.5 hr, or 2.5 hr before the addition of [^3 H]Dex±[^1 H]Dex. After a further 2.5 hr incubation, the free steroid was removed by the addition of dextran-coatedcharcoal. The specific binding to receptors was determined as described by Miller and Simons, J. Biol. Chem., 263, 15217-15225, 1988) (see also section entitled "Cells and preparation and labelling of receptors" below) and plotted as percentage of the EtOH-pretreated control versus the concentration of MMTS. The data points shown are the average values derived from 1-5 experiments.
Referring to FIG. 1B, duplicate samples of HTC cell cytosol solution were treated with various concentrations of MMTS for 2.5 hr before determining the remaining steroid binding activity of the receptors as described above for FIG. 1A.
Referring to FIG. 3, steroid-free receptors containing 21 mM Na2 MoO4 were incubated with various concentrations of 100× (in pH 8.8 TAPS buffer) arsenite for 30 min. The binding activity of these receptors was then assayed by incubating with [^3 H]Dex±excess [^1 H]Dex for 2.5 hr. The amount of specific binding of [^3 H]Dex (determined as described above for FIG. 1A) after arsenite preincubation was expressed as a percent of the untreated control.
as §1, with “1979.” for “1979. HTC cell cytosol containing the steroid-free receptors was prepared, stored in liquid N2, and labelled as set forth in Reichman et al., Biochem., 23, 5376-5384, 1984; Simons et al., Biochem., 23, 6876-6882, 1984.”

[3] = system: 16 kDa steroid-binding core fragment of HTC cell receptors; assay: [3H]Dex binding to trypsin-generated 16 kDa core fragment after preincubation with arsenite or MMTS; design: species or system rat; settings: preincubation with arsenite 30 min or MMTS 2.5 hr
Protocol: Referring to FIG. 6, duplicate samples of steroid-free receptors in pH 8.8 TAPS buffer containing 21 mM Na2 MoO4 were digested with trypsin (14 μg/ml for 1 hr), to generate the 16 kDa core fragment of the receptor, followed by a 10-fold (wt/wt) excess of soybean trypsin inhibitor to block further digestion. The samples were then treated with various concentrations of arsenite (for 30 min) or MMTS (for 2.5 hr) before determining the remaining [^3 H]Dex binding as described above for FIG. 1A.
as §1

[4] = system: human glucocorticoid receptors; assay: [3H]steroid binding of glucocorticoid receptors in MCF-7 cell cytosol after arsenite preincubation; settings: arsenite between 100 and 500 μM
Protocol: (§2) Referring to FIG. 7, steroid-free receptors (glucocorticoid, estrogen, and progesterone receptors in MCF-7 cell [from NCI, NIH] cytosol in pH 7.5 HEPES buffer containing 21 mM Na2 MoO4) were treated with various concentrations of 100× (in pH 7.5 HEPES buffer) sodium arsenite for 30 min. The binding activity of these receptors was then assayed by incubating with [^3 H]steroid±[^1 H]steroid for 2.5 hr. The amount of specific binding of [^3 H]steroid (as described above for FIG. 1A) after arsenite preincubation was expressed as the percent of the untreated control for glucocorticoid estrogen (Δ), and progesterone (.smallcircle.) receptors.
(§3) MCF-7 cells (obtained from NIH) were grown as monolayer cultures in Richter's IMEM (NIH Media Unit, NIH) (supplemented with 10% fetal bovine serum [Biofluids] and 0.03% glutamine) in an atmosphere of 5% CO2 /95% air at 37° C. Crude receptor solutions were prepared by freeze-thaw lysis (in liquid N2) of cells washed in phosphate buffered saline (Reichman et al., 1984; Simons et al., 1984). The cell lysates were treated with either […] TAPS or pH 7.5 HEPES buffer (containing 20 mM Na2 MoO4) and centrifuged at 2500×g for 10 min or 100,000×g for 60 min. […]

[5] = system: human estrogen and progesterone receptors (other receptors); assay: [3H]steroid binding of estrogen and progesterone receptors in MCF-7 cell cytosol after arsenite preincubation; settings: arsenite between 100 and 500 μM
Protocol: as §2, §3

SMILES	reversal of arsenite inhibition of steroid binding [1]	inactivation of steroid-binding activity of glucocorticoid receptors [2]	preferred MMTS concentration for blocking rat glucocorticoid receptors ([2]; rat glucocorticoid receptors)	inhibition of [3H]Dex binding to 16 kDa steroid-binding core fragment [3]	inhibition of glucocorticoid binding [4]	effect on other receptors [5]
O[C@H](CS)[C@H](O)CS (racemic) [DTT, dithiothreitol]	reversal of arsenite inhibition of steroid binding					
CSS(C)(=O)=O [MMTS, methyl methanethiolsulfonate]		specifically and reversibly inactivate all of the steroid-binding activity of glucocorticoid receptors	approximately 300 μM	inhibition of [^3 H]Dex binding		
O=[As]O [arsenite, sodium arsenite]		specifically and reversibly inactivate all of the steroid-binding activity of glucocorticoid receptors		inhibition of [^3 H]Dex binding	complete inhibition of glucocorticoid binding	little effect on other receptors
OCCS [β-MERC, β-mercaptoethanol]	reversal of arsenite inhibition of steroid binding					

— patent US5173405A, “Use of arsenite to reversibly block steroid binding to glucocorticoid receptors in the presence of other steroid receptors” (priority 1990, dated 1992)
